Counter-ions that a name gives are not always drawn.
What follows are molecules tested against T1, recombinant human beta tryptase (Homo sapiens, UniProt P20231) (assay: beta-Tryptase inhibition, chromogenic enzyme assay (substrate S2366, read at 405 nm)). Conditions: Ki calculated from IC50: Ki=IC50/(1+[Substrate]/Km); 0.5 mM substrate, room temperature; read-out: Tryptase Ki.
T1 construct: made in house; host or cells: yeast cells
T1 sequence (P20231 31-275): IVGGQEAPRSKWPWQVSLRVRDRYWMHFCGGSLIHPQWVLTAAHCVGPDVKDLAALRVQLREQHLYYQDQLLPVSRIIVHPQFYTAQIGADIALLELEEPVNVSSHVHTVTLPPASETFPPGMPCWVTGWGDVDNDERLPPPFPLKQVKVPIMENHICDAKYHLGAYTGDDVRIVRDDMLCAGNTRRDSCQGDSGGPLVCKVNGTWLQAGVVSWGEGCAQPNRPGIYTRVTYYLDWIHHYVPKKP
Format: biochemical
Text: Inhibition of this catalytic activity may be measured by the in vitro enzyme assay and the cellular assay.
Tryptase inhibition activity is confirmed using either isolated human lung tryptase or recombinant human beta tryptase expressed in yeast cells. Essentially equivalent results are obtained using isolated native enzyme or the expressed enzyme. The assay procedure employs a 96 well microplate (Costar 3590) using L-pyroglutamyl-L-prolyl-L-arginine-para-nitroanilide (S2366: Quadratech) as substrate (essentially as described by McEuen et. al. Biochem Pharm, 1996, 52, pages 331-340). Assays are performed at room temperature using 0.5 mM substrate (2×Km) and the microplate is read on a microplate reader (Beckman Biomek Plate reader) at 405 nm wavelength.
Materials and Methods for Tryptase primary screen (Chromogenic assay)
S2366 (Stock solutions of 2.5 mM).
Purified recombinant beta Tryptase Stocks of 310 μg/mL. Protocol (Single point determination) • Add 60 μL of diluted substrate (final concentration of 500 μM in assay buffer) to each well • Add compound in duplicates, final concentration of 20 volume 20 • Add enzyme at a final concentration of 50 ng/mL in a volume of 20 • Total volume for each well is 100 • Agitate briefly to mix and incubate at room temp in the dark for 30 minutes • Read absorbencies at […] Each plate has the following controls: • Totals: 60 μL of substrate, 20 μL of buffer (with 0.2% final concentration of DMSO), • 20 μL of enzyme Non-specific: 60 μL of substrate, 40 μL of buffer (with 0.2% DMSO) Totals: 60 μL of substrate, 20 μL of buffer (No DMSO), 20 μL of enzyme Non-specific: 60 μL of substrate, 40 μL of buffer (No DMSO) Protocol (IC50 and Ki determination)
The protocol is essentially the same as above except that the compound is added in duplicates at the following final concentrations: 0.01, 0.03, 0.1, 0.3, 1, 3, 10 μM (All dilutions carried out manually). For every assay, whether single point or IC50 determination, a standard compound is used to derive IC50 for comparison. From the IC50 value, the Ki can be calculated using the following formula: Ki=IC50/(1+[Substrate]/Km).
For `COCCn1cc(C(=O)N2CCC(c3cc(CN)ccc3F)CC2)c2c(-c3ccnc(C)c3)cccc21` [Example 83, [4-(5-Aminomethyl-2-fluoro-phenyl)-piperidin-1-yl]-[1-(2-methoxy-ethyl)-4-(2-methyl-pyridin-4-yl)-1H-indol-3-yl]-methanone dihydrochloride], the Ki was 5 nM.

Same assay, conditions: Tryptase Ki (nM), Ki calculated from IC50: Ki=IC50/(1+[Substrate]/Km); 0.5 mM substrate, room temperature
Molecule `COCCn1cc(C(=O)N2CCC(c3ccc(F)c(CN)c3)CC2)c2cccc(C)c21` [Example 112, [4-(3-Aminomethyl-4-fluoro-phenyl)-piperidin-1-yl]-[1-(2-methoxy-ethyl)-7-methyl-1H-indol-3-yl]-methanone hydrochloride] has a Ki of 998 nM. For `COCCn1cc(C(=O)N2CCC(c3cc(CN)ccc3F)CC2)c2c(NC(=O)c3cccc4c3OCC4)cccc21` [Example 120, 2,3-Dihydro-benzofuran-7-carboxylic acid [3-[4-(5-aminomethyl-2-fluoro-phenyl)-piperidine-1-carbonyl]-1-(2-methoxy-ethyl)-1H-indol-4-yl]-amide hydrochloride], the Ki was 3 nM. With `NCc1ccc(F)c(C2CCN(C(=O)c3cn(CC(F)(F)c4ccccc4)c4ccccc34)CC2)c1` [Example 45, [4-(5-Aminomethyl-2-fluoro-phenyl)-piperidin-1-yl]-[1-(2,2-difluoro-2-phenyl-ethyl)-1H-indol-3-yl]-methanone hydrochloride] the Ki was 753 nM. For `COCCn1cc(C(=O)N2CCC(c3cccc(CN)c3F)CC2)c2cccc(C)c21` [Example 117, [4-(3-Aminomethyl-2-fluoro-phenyl)-piperidin-1-yl]-[1-(2-methoxy-ethyl)-7-methyl-1H-indol-3-yl]-methanone hydrochloride], the Ki was 756 nM. Molecule `COCCn1cc(C(=O)N2CCC(c3cc(CN)ccc3OCC(N)=O)CC2)c2cccc(C)c21` [Example 31, 2-(4-Aminomethyl-2-{1-[1-(2-methoxy-ethyl)-7-methyl-1H-indole-3-carbonyl]-piperidin-4-yl}-phenoxy)-acetamide hydrochloride] has a Ki of 306 nM. Molecule `COCCn1cc(C(=O)N2CCC(c3cc(CN)ccc3F)CC2)c2c(C(F)(F)F)cccc21` [Example 53, [4-(5-Aminomethyl-2-fluoro-phenyl)-piperidin-1-yl]-[1-(2-methoxy-ethyl)-4-trifluoromethyl-1H-indol-3-yl]-methanone hydrochloride] has a Ki of 289 nM. `Cc1cccc2c(C(=O)N3CCC(c4cc(CN)ccc4F)CC3)cn(CCOC(F)(F)F)c12` [Example 88, hydrochloride] gave a Ki of 239 nM. `COCCn1cc(C(=O)N2CCC(c3cc(CN)ccc3C(F)(F)F)CC2)c2cccc(C)c21` [Example 110, [4-(5-Aminomethyl-2-trifluoromethyl-phenyl)-piperidin-1-yl]-[1-(2-methoxy-ethyl)-7-methyl-1H-indol-3-yl]-methanone hydrochloride] showed a Ki of 1260 nM. `COCCn1cc(C(=O)N2CCC(c3cc(CN)ccc3C(F)F)CC2)c2cccc(C)c21` [Example 9, [4-(5-Aminomethyl-2-difluoromethyl-phenyl)-piperidin-1-yl]-[1-(2-methoxy-ethyl)-7-methyl-1H-indol-3-yl]-methanone hydrochloride] gave a Ki of 203 nM. Work on `COCCn1cc(C(=O)N2CCC(c3cc(CN)ccc3F)CC2)c2c(C(=O)N(C)C)cccc21` [Example 91, 3-[4-(5-Aminomethyl-2-fluoro-phenyl)-piperidine-1-carbonyl]-1-(2-methoxy-ethyl)-1H-indol-4-carboxylic acid dimethylamide hydrochloride] yielded a Ki of 20 nM. `Cc1cccc2c(C(=O)N3CCC(c4cccc(CN)c4)CC3)cn(CCN3CCOCC3)c12` [Example 2, [4-(3-Aminomethyl-phenyl)-piperidin-1-yl]-[7-methyl-1-(2-morpholin-4-yl-ethyl)-1H-indol-3-yl]-methanone hydrochloride] gave a Ki of 234 nM. `COCCn1cc(C(=O)N2CCC(c3cc(CN)ccc3F)CC2)c2cccc(C(F)F)c21` [Example 12, [4-(5-Aminomethyl-2-fluoro-phenyl)-piperidin-1-yl]-[7-difluoromethyl-1-(2-methoxy-ethyl)-1H-indol-3-yl]-methanone hydrochloride] gave a Ki of 26 nM. `CCCCS(=O)(=O)Nc1cccc2c1c(C(=O)N1CCC(c3cc(CN)ccc3F)CC1)cn2CCOC` [Example 107, Butane-1-sulfonic acid [3-[4-(5-aminomethyl-2-fluoro-phenyl)-piperidine-1-carbonyl]-1-(2-methoxy-ethyl)-1H-indol-4-yl]-amide hydrochloride] gave a Ki of 315 nM. In the case of `COCCn1cc(C(=O)N2CCC(c3cc(CN)ccc3F)CC2)c2c(NS(=O)(=O)c3cccnc3)cccc21` [Example 106, Pyridine-3-sulfonic acid [3-[4-(5-aminomethyl-2-fluoro-phenyl)-piperidine-1-carbonyl]-1-(2-methoxy-ethyl)-1H-indol-4-yl]-amide hydrochloride], the Ki is reported as 149 nM. In the case of `Cc1cccc2c(C(=O)N3CCC(c4cc(CN)ccc4F)CC3)cn(CCOCCO)c12` [Example 21, [4-(5-Aminomethyl-2-fluoro-phenyl)-piperidin-1-yl]-{1-[2-(2-hydroxy-ethoxy)-ethyl]-7-methyl-1H-indol-3-yl}-methanone hydrochloride], the Ki is reported as 28 nM. Molecule `COCCn1cc(C(=O)N2CCC(c3cc(CN)ccc3F)CC2)c2c(NC(=O)C3CCOCC3)cccc21` [Example 95, Tetrahydro-pyran-4-carboxylic acid [3-[4-(5-aminomethyl-2-fluoro-phenyl)-piperidine-1-carbonyl]-1-(2-methoxy-ethyl)-1H-indol-4-yl]-amide hydrochloride] has a Ki of 44 nM. In the case of `COCCn1cc(C(=O)N2CCC(c3cc(CN)c(F)cc3F)CC2)c2cccc(C)c21` [Example 111, [4-(5-Aminomethyl-2,4-difluoro-phenyl)-piperidin-1-yl]-[1-(2-methoxy-ethyl)-7-methyl-1H-indol-3-yl]-methanone hydrochloride], the Ki is reported as 1020 nM. `COCCn1cc(C(=O)N2CCC(c3cc(CN)ccc3F)CC2)c2c(C)cccc21` [Example 44, [4-(5-Aminomethyl-2-fluoro-phenyl)-piperidin-1-yl]-[1-(2-methoxy-ethyl)-4-methyl-1H-indol-3-yl]-methanone hydrochloride] gave a Ki of 51 nM. `COCCn1cc(C(=O)N2CCC(c3cc(CN)ccc3F)CC2)c2c(-c3cccc(O)c3)cccc21` [Example 72, [4-(5-Aminomethyl-2-fluoro-phenyl)-piperidin-1-yl]-[4-(3-hydroxy-phenyl)-1-(2-methoxy-ethyl)-1H-indol-3-yl]-methanone hydrochloride] gave a Ki of 13 nM. Work on `COCCn1cc(C(=O)N2CCC(c3cc(CN)ccc3F)CC2)c2c(-c3ccc(OC)cc3)cccc21` [Example 70, [4-(5-Aminomethyl-2-fluoro-phenyl)-piperidin-1-yl]-[1-(2-methoxy-ethyl)-4-(4-methoxy-phenyl)-1H-indol-3-yl]-methanone hydrochloride] yielded a Ki of 21 nM. Work on `COCCn1cc(C(=O)N2CCC(c3cc(CN)ccc3F)CC2)c2c(-c3cccc(F)c3)cccc21` [Example 63, [4-(5-Aminomethyl-2-fluoro-phenyl)-piperidin-1-yl]-[4-(3-fluoro-phenyl)-1-(2-methoxyethyl)-1H-indol-3-yl]-methanone hydrochloride] yielded a Ki of 46 nM. With `COCCn1cc(C(=O)N2CCC(c3cc(CN)ccc3F)CC2)c2cccc(C#N)c21` [Example 18, 3-[4-(5-Aminomethyl-2-fluoro-phenyl)-piperidine-1-carbonyl]-1-(2-methoxy-ethyl)-1H-indole-7-carbonitrile] the Ki was 40 nM. `CCCCOc1ccc(CN)cc1C1CCN(C(=O)c2cn(CCOC)c3c(C)cccc23)CC1` [Example 114, [4-(5-Aminomethyl-2-butoxy-phenyl)-piperidin-1-yl]-[1-(2-methoxy-ethyl)-7-methyl-1H-indol-3-yl]-methanone hydrochloride] was tested, and the Ki was 526 nM. `NCc1ccc(F)c(C2CCN(C(=O)c3cn(CCOC(F)(F)F)c4cccc(F)c34)CC2)c1` [Example 90, [4-(5-Aminomethyl-2-fluoro-phenyl)-piperidin-1-yl]-[4-fluoro-(2-trifluoromethoxy-ethyl)-1H-indol-3-yl]-methanone hydrochloride] gave a Ki of 396 nM.

Same assay, conditions: Tryptase Ki (nM), additional value in parentheses tagged "719" (code not explained)
For `COCCn1cc(C(=O)N2CCC(c3cc(CN)ccc3F)CC2)c2c(C(=O)N(C)C)cccc21` [Example 91, 3-[4-(5-Aminomethyl-2-fluoro-phenyl)-piperidine-1-carbonyl]-1-(2-methoxy-ethyl)-1H-indol-4-carboxylic acid dimethylamide hydrochloride], the Ki was 54 nM.

Same assay, conditions: Tryptase Ki (nM), additional value in parentheses tagged "719D" (code not explained)
For `COCCn1cc(C(=O)N2CCC(c3cc(CN)ccc3F)CC2)c2c(NC(=O)C3CCOCC3)cccc21` [Example 95, Tetrahydro-pyran-4-carboxylic acid [3-[4-(5-aminomethyl-2-fluoro-phenyl)-piperidine-1-carbonyl]-1-(2-methoxy-ethyl)-1H-indol-4-yl]-amide hydrochloride], the Ki was 47 nM.

Same assay, conditions: Tryptase Ki (nM), additional value in parentheses tagged "8923" (code not explained)
With `COCCn1cc(C(=O)N2CCC(c3cc(CN)ccc3F)CC2)c2c(C(=O)N(C)C)cccc21` [Example 91, 3-[4-(5-Aminomethyl-2-fluoro-phenyl)-piperidine-1-carbonyl]-1-(2-methoxy-ethyl)-1H-indol-4-carboxylic acid dimethylamide hydrochloride] the Ki was 28 nM. `COCCn1cc(C(=O)N2CCC(c3cc(CN)ccc3F)CC2)c2c(NC(=O)C3CCOCC3)cccc21` [Example 95, Tetrahydro-pyran-4-carboxylic acid [3-[4-(5-aminomethyl-2-fluoro-phenyl)-piperidine-1-carbonyl]-1-(2-methoxy-ethyl)-1H-indol-4-yl]-amide hydrochloride] was tested, and the Ki was 15 nM.

Same assay, conditions: Tryptase Ki, cell prints its own unit uM under a head in nM
With `COCCn1cc(C(=O)N2CCC(c3cc(CN)ccc3OCC(=O)O)CC2)c2cccc(C)c21` [Example 33, (4-Aminomethyl-2-{1-[1-(2-methoxy-ethyl)-7-methyl-1H-indole-3-carbonyl]-piperidin-4-yl}-phenoxy)-acetic acid hydrochloride] the Ki was > 10000 nM.

Source: patent publication US20120245161A1 (SANOFI, priority 2009, published 2012)
